The values below come from the supplement of paper PMC4862054.

Conditions in all cases: incubation time: 72 h
Test [1] has as its system HDQ-P1. Kind of test: normalised viability (% of control), CellTiter-Blue; higher = more viable cells (about 100 = DMSO control). On the procedure:
(§1)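 DSRT, CellTiter-Blue viability, 72 h incubation. Signal is normalised to DMSO and benzethonium chloride controls. Value is the normalised response at dose 6.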
(The colour change of resazurin is a common sign of viable cells or microbes.)

Test [2] deals with DU-4475. Described as above. On the procedure:
as §1

Test [3] concerns CAL-51. Described as above. On the procedure:
as §1

Test [4] concerns CAL-85-1. Described as above. On the procedure:
as §1

The subject of test [5] is MDA-MB-453. Described as above. Here is the method: as §1
For test [6], the system named is CAL-148. The test is described as above. Here is the method: as §1
The test system of test [7] is MFM-223. As to the kind of experiment: normalised response (% of control), CellTiter-Glo; higher = more viable cells (100 = DMSO, 0 = benzethonium chloride kill control). On the procedure:
(§2)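 DSRT, 72 h incubation, CellTox Green / CellTiter-Glo readout. Signal is normalised to DMSO and benzethonium chloride controls. Value is the normalised response at the highest dose.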

Test [8] concerns BT-474. The description is as above. On the procedure:
as §2

Test [9] has as its system HDQ-P1. The description is as above. Here is the method:
as §2

Test [10] deals with DU-4475. Described as above. On the procedure:
as §2

The subject of test [11] is HCC1143. The test is described as above. Here is the method:
as §2

The test system of test [12] is Hs578T. Described as above. On the procedure: as §2
Test [13] relates to CAL-51. Described as above. On the procedure: as §2
Test [14] relates to SK-BR-3. Described as above. Here is the method:
as §2

The subject of test [15] is CAL-120. The description is as above. On the procedure:
as §2

The subject of test [16] is MDA-MB-436. The description is as above. Here is the method: as §2
For test [17], the system named is CAL-85-1. Described as above. On the procedure:
as §2

For test [18], the system named is BT-549. The test is described as above. On the procedure: as §2
For test [19], the system named is MDA-MB-453. Described as above. Here is the method: as §2
Test [20] concerns CAL-148. Described as above. On the procedure:
as §2

Test [21] concerns MDA-MB-468. The test is described as above. Here is the method:
as §2

Test [22] relates to HCC1937. The description is as above. Here is the method: as §2
For test [23], the system named is HCC1599. The description is as above. Here is the method:
as §2

The subject of test [24] is MDA-MB-231. The description is as above. Here is the method:
as §2

In test [25] the test system is MCF-10A. Described as above. On the procedure: as §2
The test system of test [26] is MFM-223. Kind of test: normalised response (% of control), CellTox Green; higher = less cell death (100 = DMSO, 0 = benzethonium chloride kill control). In outline: (§3)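 In 384-well plates holding compound at 5 concentrations in 10-fold steps over a 10,000-fold range specific to each compound, breast cancer cell lines were seeded as 20 µl suspension and incubated 72 h. CellTox Green fluorescence was measured at 485/520 nm, after which CellTiter-Glo luminescence was measured following 10 min at room temperature. Plate signals were normalised to 0.1 % DMSO (100) and a positive kill control (0), and each value is the normalised signal at a single concentration.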

Test [27] deals with BT-474. The test is described as above. The procedure, abridged: as §3
Test [28] relates to HDQ-P1. Described as above. The procedure, abridged: as §3
Test [29] concerns DU-4475. The description is as above. In outline: as §3
Test [30] deals with HCC1143. The test is described as above. The procedure, abridged: as §3
Test [31] has as its system Hs578T. The description is as above. The procedure, abridged:
as §3

Test [32] deals with CAL-51. Described as above. The procedure, abridged:
as §3

Test [33] deals with CAL-120. Described as above. The procedure, abridged:
as §3

In test [34] the test system is MDA-MB-436. The test is described as above. The procedure, abridged: as §3
The subject of test [35] is CAL-85-1. The test is described as above. The procedure, abridged: as §3
Test [36] has as its system BT-549. Described as above. The procedure, abridged:
as §3

Test [37] deals with MDA-MB-453. Described as above. In outline:
as §3

Test [38] relates to CAL-148. The description is as above. The procedure, abridged:
as §3

The test system of test [39] is MDA-MB-468. The test is described as above. The procedure, abridged: as §3
Test [40] has as its system HCC1937. The test is described as above. In outline: as §3
Test [41] concerns HCC1599. Described as above. In outline: as §3
Test [42] concerns MDA-MB-231. The description is as above. The procedure, abridged:
as §3

Test [43] relates to MCF-10A. The test is described as above. In outline:
as §3

In the case of `C=C1C[C@@H]2[C@H](CC[C@]3(C)C(=O)CC[C@@H]23)[C@@]2(C)C=CC(=O)C=C12` [Exemestane] (300 nM), the normalised viability in test [1] was 78%; in test [2], 81.7%; in test [3] it was 97.1%; in [4] it was 88.5%; in [5], 90.8%; in test [6], 87%.
For the compound `CN(C)CCOc1ccc(/C(=C(/CCCl)c2ccccc2)c2ccccc2)cc1` [Toremifene] (300 nM), the normalised viability in test [1] is 79.5%; in test [2] it was 99.7%; in [3], 104%; in [4], 101%; in [5] it was 101%; in test [6], 102%.
Take `COc1cc(O)c2c(c1)/C=C/C[C@H](O)[C@H](O)C(=O)/C=C\C[C@H](C)OC2=O` [(5Z)-7-Oxozeaenol] (10000 nM): the normalised response in test [7] is 25.6%; in test [8] it was 14%; in test [9], 20.5%; in test [10] it was 4.88%; in test [11], 39.9%; in test [12], 9.82%. Moreover, the normalised response was found to be 3.02% in [13]; 23.5% in [14]; 41.3% in test [15]; 25.1% in test [16]; 13.9% in test [17]; 4.83% in [18]. Further, the normalised response in test [19] is 38.5%; in test [20], 26.9%; in [21] it was 21.4%; in [22], 32.5%; in test [23] it was 32.7%; in test [24], 4.8%. Besides, the normalised response in test [25] came to 34.5%; in [26], 67.3%; in test [27] it was 54.5%; in [28], 87.9%; in test [29], 57.9%; in test [30], 135%. For the same compound, the normalised response in test [31] turned out to be 49.4%; in [32], 45.5%; in test [33], 83.6%; in test [34] it was 102%; in test [35], 27.7%; in [36], 79.2%. Also, the normalised response is 85.9% in test [37]; 56.2% in test [38]; 51.8% in [39]; -41.8% in test [40]; 97.8% in [41]; 28.4% in test [42]. Further, in test [43], the normalised response is 64.3%.
Take `CNC(=O)c1ccc(N2C(=S)N(c3ccc(C#N)c(C(F)(F)F)c3)C(=O)C2(C)C)cc1F` [Enzalutamide] (10000 nM): the normalised response in [7] worked out at 89.3%; in [8], 94.3%; in test [9] it was 86.5%; in test [10], 92.6%; in test [11] it was 96.6%; in test [12] it was 105%. The normalised response in [13] was 80.3%; in [14] it was 99%; in test [15], 97.5%; in test [16], 97.2%; in test [17] it was 91.7%; in [18], 100%. Further, the normalised response was found to be 88.5% in [19]; 96.1% in test [20]; 93.7% in test [21]; 92.7% in [22]; 102% in [23]; 90.2% in test [24]. Also, the normalised response is 93.4% in [25]; 106% in test [26]; 101% in [27]; 112% in test [28]; 98.2% in test [29]; 117% in [30]. For the same compound, the normalised response was 112% in test [31]; 108% in test [32]; 104% in [33]; 96.1% in test [34]; 85% in test [35]; 70.1% in test [36]. Besides, the normalised response in test [37] was found to be 95.5%; in test [38] it was 103%; in test [39], 87.5%; in test [40], 55.2%; in test [41], 96.7%; in [42] it was 107%. In addition, the normalised response in test [43] turned out to be 111%.
